One block for each compound: values may come before it.
Tests used:
[1] = target: T1, Recombinant purified human BTK (Homo sapiens, UniProt Q06187); assay: BTK kinase inhibitory activity, ADP-Glo kinase assay (Promega V9071); assay type: biochemical; settings: ATP 10 uM, 8 ng BTK per reaction, 1 hour 30 °C, chemiluminescence
T1 construct: purchased Promega V9071
Summary of the method: (§1)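 IC50 values come from ADP-Glo luminescence after 1 h kinase reactions at 30 °C in 1% DMSO on 0.2 µg/µL Poly(Glu4,Tyr1) substrate. ATP was 10 µM for BTK (8 ng, buffer containing MnCl2) and 5 µM for JAK3 (4 ng), in Tris-Cl pH 7.5/MgCl2/BSA/DTT.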

[2] = target: T2, Recombinant purified human JAK3 (Homo sapiens, UniProt P52333); assay: JAK3 kinase inhibitory activity, ADP-Glo kinase assay (Promega V9441); assay type: biochemical; settings: ATP 5 uM, 4 ng JAK3 per reaction, 1 hour 30 °C, chemiluminescence
T2 construct: purchased Promega V9441
T2 sequence (P52333 1-1124): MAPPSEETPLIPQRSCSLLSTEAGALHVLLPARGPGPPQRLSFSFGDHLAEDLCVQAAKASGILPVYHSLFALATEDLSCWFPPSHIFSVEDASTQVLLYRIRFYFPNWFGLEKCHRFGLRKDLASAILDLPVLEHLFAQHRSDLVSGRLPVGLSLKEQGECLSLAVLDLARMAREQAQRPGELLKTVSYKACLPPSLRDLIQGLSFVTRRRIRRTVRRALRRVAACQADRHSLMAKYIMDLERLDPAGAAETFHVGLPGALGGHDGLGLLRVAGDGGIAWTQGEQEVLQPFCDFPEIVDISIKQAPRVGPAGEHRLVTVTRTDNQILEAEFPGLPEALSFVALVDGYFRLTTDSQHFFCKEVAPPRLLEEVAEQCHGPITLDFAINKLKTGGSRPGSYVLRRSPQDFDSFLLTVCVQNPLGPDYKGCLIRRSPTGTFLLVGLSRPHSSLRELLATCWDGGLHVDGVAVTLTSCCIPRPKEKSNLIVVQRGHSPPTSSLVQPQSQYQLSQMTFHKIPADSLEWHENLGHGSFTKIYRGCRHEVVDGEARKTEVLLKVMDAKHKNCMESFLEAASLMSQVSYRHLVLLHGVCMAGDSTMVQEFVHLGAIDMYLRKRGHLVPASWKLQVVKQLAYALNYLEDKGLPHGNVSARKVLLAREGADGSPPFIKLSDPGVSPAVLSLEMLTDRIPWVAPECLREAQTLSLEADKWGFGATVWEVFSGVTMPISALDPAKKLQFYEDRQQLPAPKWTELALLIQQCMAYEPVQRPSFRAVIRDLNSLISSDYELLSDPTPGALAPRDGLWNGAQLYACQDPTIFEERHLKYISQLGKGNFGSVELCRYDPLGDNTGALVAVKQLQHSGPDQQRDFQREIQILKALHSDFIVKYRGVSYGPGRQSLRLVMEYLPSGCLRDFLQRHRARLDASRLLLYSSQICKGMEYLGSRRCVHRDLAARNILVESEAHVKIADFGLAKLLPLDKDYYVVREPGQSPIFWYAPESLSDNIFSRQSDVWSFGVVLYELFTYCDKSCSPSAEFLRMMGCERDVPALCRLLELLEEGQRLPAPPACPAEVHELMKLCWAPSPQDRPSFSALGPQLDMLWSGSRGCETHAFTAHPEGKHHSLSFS
Summary of the method: as §1

T1 sequence (Q06187 whole entry): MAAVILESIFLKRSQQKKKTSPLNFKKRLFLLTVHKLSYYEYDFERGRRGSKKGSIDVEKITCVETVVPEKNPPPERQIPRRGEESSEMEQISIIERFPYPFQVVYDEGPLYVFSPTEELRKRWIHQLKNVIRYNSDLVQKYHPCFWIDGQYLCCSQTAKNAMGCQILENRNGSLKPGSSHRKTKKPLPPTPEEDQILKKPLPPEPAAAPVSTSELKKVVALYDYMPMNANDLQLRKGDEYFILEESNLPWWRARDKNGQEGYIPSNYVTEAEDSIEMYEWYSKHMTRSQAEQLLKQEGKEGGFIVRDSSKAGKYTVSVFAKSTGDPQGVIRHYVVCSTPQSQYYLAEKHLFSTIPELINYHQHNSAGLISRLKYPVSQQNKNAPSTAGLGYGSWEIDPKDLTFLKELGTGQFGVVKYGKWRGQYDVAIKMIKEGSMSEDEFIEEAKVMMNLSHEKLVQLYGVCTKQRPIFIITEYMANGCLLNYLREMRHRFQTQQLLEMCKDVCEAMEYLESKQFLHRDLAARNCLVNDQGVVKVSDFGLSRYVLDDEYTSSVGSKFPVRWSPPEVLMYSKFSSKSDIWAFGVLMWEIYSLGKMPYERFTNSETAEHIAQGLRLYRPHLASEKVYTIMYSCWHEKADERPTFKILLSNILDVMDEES

Compound: C=CC(=O)N1CCC[C@@H](Nc2nc(Nc3ccc(OCCN(CC)CC)cc3)nc3[nH]ccc23)C1 [Example 7, (R)-1-(3-(2-(4-(2-(diethylamino)ethoxy)phenylamino)-7H-pyrrolo[2,3-d]pyrimidin-4-ylamino)piperidin-1-yl)prop-2-en-1-one]
IC50 [1]: 14 nM
IC50 [2]: 5 nM

Compound: C=CC(=O)N1CCC[C@@H](Nc2nc(Nc3cnn(CC(F)(F)F)c3)nc3[nH]ncc23)C1 [Example 144, (R)-1-(3-((6-((1-(2,2,2-trifluoroethyl)-1H-pyrazol-4-yl)amino)-1H-pyrazolo[3,4-d]pyrimidin-4-yl)amino)piperidin-1-yl)prop-2-en-1-one]
IC50 [1]: 1.5 nM
IC50 [2]: 1.4 nM

Compound: C=CC(=O)N1CCC[C@@H](Nc2nc(Nc3cnn(CCN4CCOCC4)c3)nc3[nH]ccc23)C1 [Example 18, (R)-1-(3-(2-(1-(2-morpholinoethyl)-1H-pyrazol-4-ylamino)-7H-pyrrolo[2,3-d]pyrimidin-4-ylamino)piperidin-1-yl)prop-2-en-1-one]
IC50 [1]: 8.8 nM
IC50 [2]: 0.3 nM

Compound: C=CC(=O)N1CCC[C@@H](Oc2nc(Nc3cnn(CC(F)F)c3)nc3[nH]cc(C#N)c23)C1 [Example 149, (R)-4-((1-acryloylpiperidin-3-yl)oxy)-2-((1-(2,2-difluoroethyl)-1H-pyrazol-4-yl)amino)-7H-pyrrolo[2,3-d]pyrimidine-5-carbonitrile]
IC50 [1]: 1.6 nM
IC50 [2]: 0.2 nM

Compound: C=CC(=O)N1CCC[C@@H](Nc2nc(Nc3cnn(CCC)c3)nc3[nH]ncc23)C1 [Example 73, (R)-1-(3-((6-((1-propyl-1H-pyrazol-4-yl)amino)-1H-pyrazolo[3,4-d]pyrimidin-4-yl)amino)piperidin-1-yl)prop-2-en-1-one]
IC50 [1]: 1.1 nM
IC50 [2]: 4.4 nM

Compound: C=CC(=O)N1CCC[C@@H](Nc2nc(Nc3cnn(C(C)(C)C)c3)nc3[nH]cc(Cl)c23)C1 [Example 70, (R)-1-(3-((2-((1-(tert-butyl)-1H-pyrazol-4-yl)amino)-5-chloro-7H-pyrrolo[2,3-d]pyrimidin-4-yl)amino)piperidin-1-yl)prop-2-en-1-one]
IC50 [1]: 2.3 nM
IC50 [2]: 0.2 nM

Compound: C=CC(=O)N1CCC[C@@H](N(C)c2nc(Nc3cnn(CC)c3)nc3[nH]cc(F)c23)C1 [Example 87, (R)-1-(3-((2-((1-ethyl-1H-pyrazol-4-yl)amino)-5-fluoro-7H-pyrrolo[2,3-d]pyrimidin-4-yl)(methyl)amino)piperidin-1-yl)prop-2-en-1-one]
IC50 [1]: 42.2 nM
IC50 [2]: 16.4 nM

Compound: C=CC(=O)N1CCC[C@@H](Nc2nc(Nc3ccc4ncsc4c3)nc3[nH]cc(C)c23)C1 [Example 81, (R)-1-(3-((2-(benzo[d]thiazol-6-ylamino)-5-methyl-7H-pyrrolo[2,3-d]pyrimidin-4-yl)amino)piperidin-1-yl)prop-2-en-1-one]
IC50 [1]: 25.5 nM
IC50 [2]: 3.8 nM

Compound: C=CC(=O)N1CCC[C@@H](Nc2nc(Nc3cnn(CCN(CC)CC)c3)nc3[nH]cc(Cl)c23)C1 [Example 95, (R)-1-(3-((5-chloro-2-((1-(2-(diethylamino)ethyl)-1H-pyrazol-4-yl)amino)-7H-pyrrolo[2,3-d]pyrimidin-4-yl)amino)piperidin-1-yl)prop-2-en-1-one]
IC50 [1]: 5.9 nM
IC50 [2]: 0.5 nM

Compound: C=CC(=O)N1CCC[C@@H](Nc2nc(Nc3cnn(C4CCOCC4)c3)nc3[nH]ncc23)C1 [Example 71, (R)-1-(3-((6-((1-(tetrahydro-2H-pyran-4-yl)-1H-pyrazol-4-yl)amino)-1H-pyrazolo[3,4-d]pyrimidin-4-yl)amino)piperidin-1-yl)prop-2-en-1-one]
IC50 [1]: 1.3 nM
IC50 [2]: 2.8 nM

Compound: C=CC(=O)N1CCC[C@@H](Nc2nc(Nc3cnn(CC(C)C)c3)nc3[nH]ncc23)C1 [Example 65, (R)-1-(3-((6-((1-isobutyl-1H-pyrazol-4-yl)amino)-1H-pyrazolo[3,4-d]pyrimidin-4-yl)amino)piperidin-1-yl)prop-2-en-1-one]
IC50 [1]: 1.7 nM
IC50 [2]: 5.5 nM

Compound: CCC#CC(=O)N1CCC[C@@H](Nc2nc(Nc3ccc(N4CCN(C)CC4)cc3)nc3[nH]cc(Cl)c23)C1 [Example 142, (R)-1-(3-((5-chloro-2-((4-(4-methylpiperazin-1-yl)phenyl)amino)-7H-pyrrolo[2,3-d]pyrimidin-4-yl)amino)piperidin-1-yl)pent-2-yn-1-one]
IC50 [1]: 210 nM
IC50 [2]: 22.4 nM

Compound: C=CC(=O)N1CCC[C@@H](Nc2nc(Nc3cnn(CC)c3)nc3[nH]ccc23)C1 [Example 21, (R)-1-(3-(2-(1-ethyl-1H-pyrazol-4-ylamino)-7H-pyrrolo[2,3-d]pyrimidin-4-ylamino)piperidin-1-yl)prop-2-en-1-one]
IC50 [1]: 4.5 nM
IC50 [2]: 0.4 nM

Compound: N#C/C(=C\C1CCCC1)C(=O)N1CCC[C@@H](Nc2nc(Nc3cnn(C4CC4)c3)nc3[nH]nc(Cl)c23)C1 [Example 165, (R,E)-2-(3-((3-chloro-6-((1-cyclopropyl-1H-pyrazol-4-yl)amino)-1H-pyrazolo[3,4-d]pyrimidin-4-yl)amino)piperidine-1-carbonyl)-3-cyclopentylacrylonitrile]
IC50 [1]: 1.9 nM
IC50 [2]: 2.2 nM

Now from value to compound:

IC50 [1]: 2.1 nM
IC50 [2]: 25.5 nM
Compound: C=CC(=O)N1CC[C@@H](C)[C@@H](Nc2nc(Nc3cnn(CC)c3)nc3[nH]nc(SC)c23)C1 [Example 132, 1-((3R,4R)-3-((6-((1-ethyl-1H-pyrazol-4-yl)amino)-3-(methylthio)-1H-pyrazolo[3,4-d]pyrimidin-4-yl)amino)-4-methylpiperidin-1-yl)prop-2-en-1-one]

IC50 [1]: 1.2 nM
IC50 [2]: 2.9 nM
Compound: CC(C)/C=C(\C#N)C(=O)N1CCC[C@@H](Oc2nc(Nc3cnn(C4CC4)c3)nc3[nH]nc(Cl)c23)C1 [Example 158, (R,E)-2-(3-((3-chloro-6-((1-cyclopropyl-1H-pyrazol-4-yl)amino)-1H-pyrazolo[3,4-d]pyrimidin-4-yl)oxy)piperidine-1-carbonyl)-4-methylpent-2-enenitrile]

IC50 [1]: 1.5 nM
IC50 [2]: 43.1 nM
Compound: C=CC(=O)N1CC[C@@H](C)[C@@H](Nc2nc(Nc3cnn(C(F)F)c3)nc3[nH]nc(Cl)c23)C1 [Example 127, 1-((3R,4R)-3-((3-chloro-6-((1-(difluoromethyl)-1H-pyrazol-4-yl)amino)-1H-pyrazolo [3,4-d]pyrimidin-4-yl)amino)-4-methylpiperidin-1-yl)prop-2-en-1-one]

IC50 [1]: 13.9 nM
IC50 [2]: 0.9 nM
Compound: C=CC(=O)N1CCC[C@@H](Nc2nc(Nc3cnoc3)nc3[nH]ccc23)C1 [Example 23, (R)-1-(3-(2-(isoxazol-4-ylamino)-7H-pyrrolo[2,3-d]pyrimidin-4-ylamino)piperidin-1-yl)prop-2-en-1-one]

IC50 [1]: 1.8 nM
IC50 [2]: 0.4 nM
Compound: C=CC(=O)N1CCC[C@@H](Nc2nc(Nc3cnn(CCN(CC)CC)c3)nc3[nH]nc(Cl)c23)C1 [Example 57, (R)-1-(3-(3-chloro-6-(1-(2-(diethylamino)ethyl)-1H-pyrazol-4-ylamino)-1H-pyrazolo [3,4-d]pyrimidin-4-ylamino)piperidin-1-yl)prop-2-en-1-one]

IC50 [1]: 1.8 nM
IC50 [2]: 0.7 nM
Compound: C=CC(=O)N1CCC[C@@H](Nc2nc(Nc3cnn(CCN4CCOCC4)c3)nc3[nH]nc(Cl)c23)C1 [Example 54, (R)-1-(3-(3-chloro-6-(1-(2-morpholinoethyl)-1H-pyrazol-4-ylamino)-1H-pyrazolo [3,4-d]pyrimidin-4-ylamino)piperidin-1-yl)prop-2-en-1-one]

IC50 [1]: 25.3 nM
IC50 [2]: 19.5 nM
Compound: C=CC(=O)N1CCC[C@@H](Sc2nc(Nc3cnoc3)nc3[nH]nc(Cl)c23)C1 [Example 116, (R)-1-(3-((3-chloro-6-(isoxazol-4-ylamino)-1H-pyrazolo [3,4-d]pyrimidin-4-yl)thio)piperidin-1-yl)prop-2-en-1-one]

IC50 [1]: 1.3 nM
IC50 [2]: 0.6 nM
Compound: C=CC(=O)N1CCC[C@@H](Sc2nc(Nc3cnn(CC(F)F)c3)nc3[nH]nc(Cl)c23)C1 [Example 108]

IC50 [1]: 19.6 nM
IC50 [2]: 2.6 nM
Compound: C=CC(=O)N1CCC[C@@H](Nc2nc(Nc3cccnc3)nc3[nH]cc(Cl)c23)C1 [Example 137, (R)-1-(3-((5-chloro-2-(pyridin-3-ylamino)-7H-pyrrolo[2,3-d]pyrimidin-4-yl)amino)piperidin-1-yl)prop-2-en-1-one]

From EP3478687B1 (Daewoong Pharmaceutical Co., Ltd., priority 2016, dated 2018)
